“Also recorded” adds a separate entry of the source. Peptide text beside a SMILES is read from it. * marks the point of attachment. Cbz = O=C(OCc1ccccc1)*; CH2F = FC*

The subject of experiment [1] is 293T cells. Description: VPR-induced apoptosis and cell cycle analysis by propidium iodide DNA content in 293T cells. The format is cell-based, human. The protocol: (§1) Cell cycle analysis in 293T cells was performed on ethanol-fixed cells using the propidium iodide staining method after transduction with lentiviral vectors encoding wild type or mutant VPR. Cell debris was excluded from the analysis, and the DNA content of cells below the diploid level, sub-G1, was used to calculate the apoptosis rate. The association of VPR with VprBP and DNA-PK was determined by immunoprecipitation. Briefly, whole cell extracts were prepared in lysis buffer and incubated with the relevant antibodies, concentrated on Protein G beads, and analyzed by Western blotting. HIV-1 viral stocks were generated by transfecting 293T cells with the HIV-189.6 wild type and IVPR plasmids followed by propagation in CEMx174 cells as previously described^16. CD4^+ T cells were isolated from elutriated lymphocytes using magnetic bead purification, activated and infected as described in Methods. For siRNA transfections in CD4^+ lymphocytes, isolated CD4 cells were transduced by nucleofection. In some experiments, cells were treated with either DMSO or the DNA-PK inhibitor NU7026 (Sigma) during the infection period. Viability of infected primary CD4^+ T cells was performed using combined staining with Annexin V-APC (BD Pharmigen) and the amine reactive viability dye ViVid (Invitrogen). Flow cytometry was performed with a LSR II cell analyzer.
CEMX174 cells were cultured in RPMI with 10% FBS and antibiotics (penicillin and streptomycin). HEK293T cells were cultured in DMEM supplemented with 10% FBS and antibiotics (penicillin and streptomycin). For immunoprecipitation experiments HEK293T cells were transfected with 3 μg of either […] or 102-HAVpr Q65R using the LipofectAMINE 2000 reagent (Life Technologies, Inc.). For cell cycle analysis HEK293T cells were harvested, washed with ice-cold PBS and resuspended in 70% cold ethanol while vortexing. The cells were incubated at −20° C. overnight, washed once with PBS and resuspended in PBS containing 25 μg/ml propidium iodide and 100 μg/ml RNaseA for 15 minutes at 25° C. Stained cells were then analyzed by flow cytometry.
Lentivirus vectors were produced by transiently transfecting HEK293T cells using the calcium phosphate method. […]. Virus supernatants were collected at 48 h post transfection. The harvested supernatants were cleared by centrifugation, concentrated and frozen at −80° C. for storage.

Experiment [2] has as its system primary human CD4+ T cells infected with HIV-189.6. Description: Viability (Annexin V / ViVid) of primary CD4+ T cells infected with HIV-189.6. In kind it is cell-based. As to conditions: primary CD4+ lymphocytes, wild type HIV-189.6; NU7026 vs DMSO vehicle; 6 days after infection. As to the method: as §1, with “For siRNA transfections in CD4^+ lymphocytes, isolated CD4 cells were transduced by nucleofection. In some experiments, cells were treated with either DMSO or the DNA-PK inhibitor NU7026 (Sigma) during the infection period. Viability of infected primary CD4^+ T cells was performed using combined staining with Annexin V-APC (BD Pharmigen) and the amine reactive viability dye ViVid (Invitrogen). Flow cytometry was performed with a LSR II cell analyzer.” left out
CD4^+ T lymphocytes were isolated from elutriated lymphocytes prepared from blood of healthy donors by negative selection with a CD4^+ T-cell isolation kit II (Miltenyi Biotech) according to the manufacturer's instructions. The purity of the isolated CD4^+ T cells was assessed by fluorescence-activated cell sorting (FACS) analysis for CD4 (BD-Pharmingen) and 95% of the cells were CD4^+ upon isolation. […]

Experiment [3] has as its target T1, DNA-PK (Homo sapiens, UniProt P78527).
T1 construct: endogenous in cells; host or cells: HEK293T (inferred; only VPR is transfected, DNA-PK is the cells' own)
Nature of the experiment: Western blot of γH2AX (H2AX phosphorylation) in cells transfected with VPR-encoding plasmid. As to conditions: indicated concentrations of inhibitor (FIG. 2d). In kind it is cell-based.
Experimental: FIG. 2d, VPR induction of DNA-PKcs autophosphorylation (left, lanes 1,2) and Western blot analysis of γH2AX from cells transfected with a VPR-encoding plasmid and treated with the indicated concentrations of DNA-PK inhibitor NU7026 (right, lanes 3-7). Western blot analysis of autophosphorylated DNA-PKcs was performed using anti-phosphoserine 2056 DNA-PKcs from cells transfected with an empty vector or a VPR-encoding plasmid. Cell lysates were subjected to Western blotting using the indicated antibodies.
Cell extracts for Western blots and immunoprecipitations were made in cell lysis buffer (Cell Signal). Immunoprecipitations were performed overnight at 4° C. using normal rabbit serum, anti-VprBP or anti-DNA-PK polyclonal antibodies (Bethyl Laboratories). Protein G beads (Invitrogen) were then added for 2 h, washed three times with 1× lysis buffer, boiled and loaded onto 4-15% polyacrylamide Tris Glycine gels (BioRad). The primary antibodies used for Western blotting were anti-DNA-PK, anti-VprBP (Bethyl Laboratories), anti-actin (Sigma), anti-γH2AX (Cell Signaling), anti-HA (Santa Cruz Biotechnology), anti-Ku70, and anti-Ku80 (BD Transduction Laboratories).

Experiment [4] relates to HIV-189.6. Description: Frequency of infection by p24 positivity, flow cytometry. In kind it is cell-based, HIV-1. As to conditions: primary CD4+ lymphocytes, wild type HIV-189.6; NU7026 vs DMSO. The protocol: Purified, activated CD4^+ T cells were infected 2-3 days after isolation. For nucleofected cells, infection was done 36 h after nucleofection. HIV-1 infection of CD4^+ T lymphocytes was performed in 96-well round-bottomed culture plates by combining 10 μl virus stock with 150 μl CD4^+ T lymphocytes (1.5×10^5 cells). The multiplicity of infection was ˜1.0. CD4^+ T lymphocytes were harvested at the indicated times following exposure to virus.
CD4^+ T lymphocytes were harvested for Annexin V, Vivid and intracellular p24-Gag staining at the indicated times following exposure to virus. In brief, the cells were washed and stained with Annexin V-APC (BD Pharmigen) and Vivid (Invitrogen) for 20 min. Cells were washed once, fixed, and permeabilized with Cytoperm/Cytofix (BD Pharmingen) for 20 min. Cells were then stained for p24 Gag (KC-57 fluorescein isothiocyanate (FITC); Coulter) for 30 min and washed once in 1× Perm/wash buffer (BD Pharmingen). Flow cytometry was performed with an LSR II cell analyzer (Becton Dickinson), and data analysis was performed with FlowJo software (Tree Star, Inc.)
(In general: In flow cytometry, cells or beads pass a laser one at a time.)

[5] abbreviates: 293T cells transduced with VPR lentiviral vector, NU7026 10 μM vs DMSO, 72 h after transduction.
[6] abbreviates: 293T cells transduced with lentiviral vector encoding wild type VPR, 100 μM Z-VAD-fmk vs DMSO.

For `O=c1cc(N2CCOCC2)oc2c1ccc1ccccc12` [NU7026], in experiment [1] (setting [5]), the “G2/M cell cycle arrest” value is “without diminishing” and the VPR-induced apoptosis entry is listed as “alleviated”. In addition, the “direct cell killing by the virus (cell death following HIV infection)” value in experiment [2] is “profoundly diminished; also recorded: substantial reduction”. Further, in experiment [3], the “VPR induced H2AX phosphorylation” value is listed as “diminished by this DNA-PK inhibitor in a dose-dependent manner”. Also, the “frequency of infection, p24 positivity” value in experiment [4] was “remained unchanged”.

For the compound `COC(=O)C[C@H](NC(=O)[C@H](C)NC(=O)[C@@H](NC(=O)OCc1ccccc1)C(C)C)C(=O)CF` [zVAD-fmk] (Cbz-Val-Ala-Asp(OMe)-CH2F), in experiment [1] (setting [6]), the G2/M blockade entry is reported as “did not reverse” and the VPR-induced apoptosis entry is “significantly reduced”.

The values are drawn from patent publication US20130109687A1, “METHODS OF TREATING HIV INFECTION: INHIBITION OF DNA DEPENDENT PROTEIN KINASE” (priority 2010, published 2013).
